Assay results as given in publication PMC10854894, “A New Benzo[6,7]oxepino[3,2-b] Pyridine Derivative Induces Apoptosis in Canine Mammary Cancer Cell Lines” (Animals : an Open Access Journal from MDPI, 2024).

How the values were obtained:
Assay type in all cases: cell-based, canine
REM134 cells [1] = test: Immunohistochemistry of vimentin and cytokeratin, Allred score; settings: REM134, 0-200 µM, 48 h, treatment vs control
Procedure: (§1) The cells were cultured in a T-25 cell culture flask (SPL life science, Gyeonggi-do, Republic of Korea) at a density of 2 × 10^5 cells/well and allowed to incubate for 24 h until they reached 60–70% confluence. They were subsequently treated with MPOBA at varying concentrations from 0 to 200 µM for 48 h. After treatment, cells were harvested using TrypLE and subjected to centrifugation at 1200 rpm for 5 min to obtain cell pellets. Then, the supernatant was replaced with 10% formalin, and the cell pellets were fixed overnight. The fixed cell pellets were embedded in paraffin blocks and sectioned with a thickness of 3 μm. These slide sections were then subjected to the deparaffinization and rehydration processes. For antigen retrieval, a heat-induced method was adopted, utilizing a vegetable steamer in a citrate buffer (pH = 6) at 90–100 °C for 45 min, followed by a cooling period of 30 min. After these preparatory steps, slides were mounted on cover plates within a Sequenza slide rack (Thermo Scientific, Waltham, MA, USA), void of air bubbles, and filled with Tris-buffered saline (TBS) (pH = 7.6). The immunohistochemical detection employed a Novolink™ Polymer Detection Kit (Leica Biosystems, Newcastle, UK) according to the manufacturer’s instructions. This began with the inhibition of endogenous peroxidase activity with a 150 μL peroxidase block at room temperature for 5 min, followed by washing with TBS three times for 3 min each. Subsequently, a 150 μL protein block was applied, incubated for 5 min, and washed three times with TBS for 3 min. Primary antibodies, including a vimentin (VT) mouse anti-human monoclonal antibody (Clone V9, ready-to-use kit, Leica Biosystems, Newcastle, UK) and a multi-cytokeratin (CK) mouse antibody (Clone AE1/AE3, ready-to-use kit, Leica Biosystems, Newcastle, UK), were incubated at 37 °C for 1 h. […]
(§2) A quantitative evaluation of the stained slides was performed utilizing the Allred scoring method and QuPath bioimaging software version 0.4.4 [48] to mitigate potential biases. […] The positive cells were systematically detected using the “positive cell detection” command in the analyze menu. The Allred score was calculated according to the quantity of marked cells and the intensity of the staining, as shown in Table S1. […] The scores and criteria used to quantify the labeled cells were 0, no labeling; 1, labeling in <1% of cells; 2, labeling in 1–10% of cells; 3, labeling in 11–33% of cells; 4, labeling in 34–66% of cells; and 5, labeling in 67–100% of cells. […] The staining intensity was determined visually. The sum of these criteria for each sample determined the final score.

CMGT071020 cells [2] = test: as above; settings: CMGT071020, 0-200 µM, 48 h, treatment vs control
Procedure: as §1, §2

REM134 cells [3] = test: Transwell migration assay; settings: 24 h, vs control (0.1% DMSO)
Procedure: (§3) The CMC cell migration assay was carried out using Transwell 24-well microplates with an 8 µm pore size (Costar, Corning, NY, USA). Both CMC cell lines were seeded into the upper Transwell insert at a density of 5 × 10^3 cells/well, containing various concentrations of MPOBA (0–200 µM) with 5% FBS in DMEM media. Then, 10% FBS in DMEM medium was added into the lower chambers, and the cells were incubated for 24 h. After an incubation duration of 24 h, the non-invaded cells were removed with a cotton swab from the upper surface of the membrane, and the invaded cells on the lower surface of the membrane were fixed with 100% methanol for 1 min and stained with the Wright–Giemsa stain for 20 min. The number of migrated cells was averaged by counting five random microscope fields for each sample at 4 × magnification in four independent experiments.

CMGT071020 cells [4] = test: Transwell migration assay; settings: 24 h, vs control (0.1% DMSO)
Procedure: as §3

REM134 cells [5] = test: Annexin V-FITC/PI apoptosis assay, flow cytometry; settings: 48 h; for percentage of total apoptosis: untreated 5.14%
Procedure: (§4) The mode of cell death induced by MPOBA was evaluated using FITC Annexin V apoptosis detection kit I (BD Bioscience, San Jose, CA, USA) according to the manufacturer’s protocols. The REM134 and CMGT071020 cell lines were seeded at a density of 2 × 10^4 cells/well in a 12-well plate and allowed to grow for 24 h (60% confluency) prior to treatment with MPOBA at concentrations ranging from 0 to 200 µM for 48 h. After the incubation period, all adhering and floating cells were harvested and transferred into sterile centrifuge tubes. The cells were centrifuged at 400× g for 5 min at room temperature. The supernatant was aspirated, leaving approximately 50 µL of residual fluid in the tubes to avoid disturbing the pellets. FITC Annexin V (5 µL) and PI (5 µL) were added to the tubes containing cell pellets. The mixtures were gently vortexed and incubated for 15 min at room temperature in the dark. A binding buffer (400 µL) was added to each tube. A total of 20,000 events were acquired for each sample using a CytoFLEX flow cytometer (Beckman Coulter, Miami, FL, USA) within an hour. […] The experiment was performed with four replicates. The positive control was doxorubicin-treated CMC cells, while the negative control was 0.1% DMSO-treated CMC cells.

CMGT071020 cells [6] = test: Annexin V-FITC/PI apoptosis assay, flow cytometry; settings: 48 h; for percentage of total apoptosis: untreated 5.97%
Procedure: as §4

Cc1ncccc1Oc1ccccc1C=O [MPOBA, 2-((2-methylpyridin-3-yl)oxy)benzaldehyde]
cytokeratin (CK) expression, Allred score (REM134 cells [1]): no statistically significant difference
vimentin (VT) expression, Allred score (REM134 cells [1]): no statistically significant difference
cytokeratin (CK) expression, Allred score (CMGT071020 cells [2]): no statistically significant difference
vimentin (VT) expression, Allred score (CMGT071020 cells [2]): no statistically significant difference
percentage of migrated cells (REM134 cells [3]; REM134, 100 µM): 35%
percentage of migrated cells (REM134 cells [3]; REM134, 200 µM): 26%
percentage of migrated cells (CMGT071020 cells [4]; CMGT071020, 100 µM): 68%
percentage of migrated cells (CMGT071020 cells [4]; CMGT071020, 200 µM): 40%
viability at 50 µM (REM134 cells [5]; Canis lupus familiaris, REM134, 50 μM, Figure 7A plot, read-out: viable cells): 84.1%
viability at 100 µM (REM134 cells [5]; Canis lupus familiaris, REM134, 100 μM, Figure 7A plot, read-out: viable cells): 75.5%
viability at 200 µM (REM134 cells [5]; Canis lupus familiaris, REM134, 200 μM, Figure 7A plot, read-out: viable cells): 69.6%
percentage of total apoptosis (REM134 cells [5]; REM134, 100 µM): 23.6%
percentage of total apoptosis (REM134 cells [5]; REM134, 200 µM): 28.75%
percentage of total apoptosis (CMGT071020 cells [6]; CMGT071020, 100 µM): 21.88%
percentage of total apoptosis (CMGT071020 cells [6]; CMGT071020, 200 µM): 27.07%
viability at 50 µM (CMGT071020 cells [6]; Canis lupus familiaris, CMGT071020, 50 μM, Figure 7A plot, read-out: viable cells): 80.6%
viability at 100 µM (CMGT071020 cells [6]; Canis lupus familiaris, CMGT071020, 100 μM, Figure 7A plot, read-out: viable cells): 72.9%
viability at 200 µM (CMGT071020 cells [6]; Canis lupus familiaris, CMGT071020, 200 μM, Figure 7A plot, read-out: viable cells): 63.4%
